# pKd: −log10 of the molar value.
# Legend:
# STAT3 [1] = experiment: STAT3 dimerization assay and immunoprecipitation; format: cell-based, rat; conditions: PDGF-BB-induced VSMCs; CAB 3–5 μmol/L, AG490 20 μmol/L, stattic 1 μmol/L
# phospho-pRb (p-pRb) = experiment: Western blot, phospho-pRb; format: cell-based, rat; conditions: 1–5 μmol/L, 24 h
# [2] = test system: Ciapin1 promoter (STAT3-RE1); experiment: ChIP-PCR assay, STAT3 binding to Ciapin1 promoter; format: cell-based, rat; conditions: CAB 2 h, then PDGF-BB 6 h
# PDGFR-β = experiment: Western blot, PDGFR-β phosphorylation in PDGF-BB-induced VSMCs; format: cell-based, rat; conditions: 1–5 μmol/L, PDGF-BB 15 min
# STAT3 [3] = experiment: STAT3 nuclear translocation; format: cell-based, rat; conditions: PDGF-BB 15 min
# CDK2 = experiment: Western blot, CDK2 expression; format: cell-based, rat; conditions: 1–5 μmol/L, 24 h
# STAT3 [4] = experiment: STAT3 dual-luciferase reporter assay; format: cell-based, rat; conditions: PDGF-BB 6 h
# SPP1 = experiment: Western blot, SPP1 expression in PDGF-BB-induced VSMCs; format: cell-based, rat; conditions: 24 h; CAB 1–5 μmol/L, stattic 1 μmol/L
# VSMCs [5] = experiment: Annexin V/PI apoptosis detection assay; format: cell-based, rat; conditions: 5 μmol/L, 26 h, compared with control
# cyclin E1 = experiment: Western blot, cyclin E1 expression; format: cell-based, rat; conditions: 1–5 μmol/L, 24 h
# His-STAT3 = experiment: His-tag pull-down assay with CAB-conjugated Sepharose 6B; format: binding, Mus musculus
# CDKN1B = experiment: Western blot, CDKN1B expression in PDGF-BB-induced VSMCs; format: cell-based, rat; conditions: 24 h, CAB 1–5 μmol/L, stattic 1 μmol/L
# VSMCs [6] = experiment: MTT cytotoxicity assay in VSMCs; format: cell-based, rat; conditions: 5 μmol/L, 26 h
# rat Ciapin1 promoter = experiment: Ciapin1 promoter luciferase assay; format: cell-based; conditions: PDGF-BB 6 h
# KLF4 = experiment: Western blot, KLF4 expression in PDGF-BB-induced VSMCs; format: cell-based, rat; conditions: 24 h; CAB 1–5 μmol/L, stattic 1 μmol/L
# CIAPIN1 [7] = experiment: Western blot, CIAPIN1 expression in PDGF-BB-induced VSMCs; format: cell-based, rat; conditions: 24 h; CAB 1–5 μmol/L, stattic 1 μmol/L
# ERK1/2 = experiment: Western blot, ERK1/2 phosphorylation in PDGF-BB-induced VSMCs; format: cell-based, rat; conditions: 1–5 μmol/L, PDGF-BB 15 min
# SRC = experiment: Western blot, SRC phosphorylation in PDGF-BB-induced VSMCs; format: cell-based, rat; conditions: 5 μmol/L, PDGF-BB 15 min
# cyclin D1 = experiment: Western blot, cyclin D1 expression; format: cell-based, rat; conditions: 1–5 μmol/L, 24 h
# CDK4 = experiment: Western blot, CDK4 expression; format: cell-based, rat; conditions: 1–5 μmol/L, 24 h
# rat carotid arteries = experiment: Balloon injury-induced neointima formation in rat carotid artery; format: in vivo, Sprague–Dawley rats; conditions: 20 mg/kg orally daily, 14 days
# STAT3 [8] = experiment: Western blot, STAT3 phosphorylation in PDGF-BB-induced VSMCs; format: cell-based, rat; conditions: for STAT3 phosphorylation: PDGF-BB 24 h, CAB 1–5 μmol/L, stattic 1 μmol/L
# MMP9 [9] = experiment: Gelatin zymography, MMP9 activity; format: cell-based, rat; conditions: 1–5 μmol/L, PDGF-BB 24 h
# CIAPIN1 [10] = experiment: CIAPIN1 nuclear accumulation; format: cell-based, rat; conditions: PDGF-BB-induced VSMCs, 24 h
# p38 = experiment: Western blot, p38 phosphorylation in PDGF-BB-induced VSMCs; format: cell-based, rat; conditions: 1–5 μmol/L, PDGF-BB 15 min
# PDGF-BB-induced VSMCs [11] = experiment: Cell cycle progression analysis; format: cell-based, rat; conditions: CAB-treated versus PDGF-BB-induced VSMCs, 24 h
# AKT = experiment: Western blot, AKT phosphorylation in PDGF-BB-induced VSMCs; format: cell-based, rat; conditions: 1–5 μmol/L, PDGF-BB 15 min
# PCNA = experiment: Western blot, PCNA expression; format: cell-based, rat; conditions: 1–5 μmol/L, 24 h
# [12] = format: in vivo, Sprague–Dawley rats
# MMP9 [13] = experiment: Western blot, MMP9 expression; format: cell-based, rat; conditions: 1–5 μmol/L, 24 h
# JAK2 = experiment: Western blot, JAK2 expression and phosphorylation in PDGF-BB-induced VSMCs; format: cell-based, rat; conditions: for PDGF-BB-induced JAK2 expression: 24 h; for PDGF-BB-induced JAK2 expression / JAK2 phosphorylation: CAB 1–5 μmol/L, stattic 1 μmol/L; for JAK2 phosphorylation: PDGF-BB 24 h
# [14] = biological target: STAT3 protein (amino acids 127–688) (Homo sapiens, UniProt P40763); experiment: Surface plasmon resonance; format: binding; conditions: immobilized STAT3 (127–688 aa), 25 °C
# PDGF-BB-induced VSMCs [15] = experiment: MTT assay, PDGF-BB-induced VSMC proliferation; format: cell-based, rat; conditions: 5 μmol/L for 2 h, then PDGF-BB 25 ng/mL for 24 h
# [16] = rat serum, after 2 weeks of CAB administration
# STAT3 protein (amino acids 127–688), sequence (P40763 127-688): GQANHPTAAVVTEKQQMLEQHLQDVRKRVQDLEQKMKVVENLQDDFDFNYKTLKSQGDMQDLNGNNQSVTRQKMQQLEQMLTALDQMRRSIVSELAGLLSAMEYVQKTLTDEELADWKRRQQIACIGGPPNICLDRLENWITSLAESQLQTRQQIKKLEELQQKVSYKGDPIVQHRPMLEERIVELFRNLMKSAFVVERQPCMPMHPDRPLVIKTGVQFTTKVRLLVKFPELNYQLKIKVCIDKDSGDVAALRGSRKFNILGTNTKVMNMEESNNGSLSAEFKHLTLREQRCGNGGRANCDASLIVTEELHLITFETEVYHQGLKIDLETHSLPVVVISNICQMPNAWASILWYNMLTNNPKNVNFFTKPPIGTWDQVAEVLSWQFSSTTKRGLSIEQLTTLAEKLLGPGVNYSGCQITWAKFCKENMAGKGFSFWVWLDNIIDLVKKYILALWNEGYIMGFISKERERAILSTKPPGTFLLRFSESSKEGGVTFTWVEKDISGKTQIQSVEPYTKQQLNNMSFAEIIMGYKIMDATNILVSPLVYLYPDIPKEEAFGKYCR
compound,measurement,setting,value
N#C/C(=C/c1ccc(O)c(O)c1)C(=O)NCc1ccccc1 [AG490],STAT3 dimerization,STAT3 [1],inhibitory effect
"Nc1ccc(C(=O)Oc2ccc3[nH]c4ccccc4c3c2)cc1 [CAB, 9H-Carbazol-3-yl 4-aminobenzoate]",PDGF-BB-induced phospho-pRb (p-pRb),phospho-pRb (p-pRb),significantly inhibited
same,binding of STAT3 to the Ciapin1 promoter region (protein/DNA binding),[2],inhibited
same,PDGF-BB-stimulated PDGFR-β phosphorylation,PDGFR-β,did not affect
same,PDGF-BB-increased STAT3 phosphorylation and nuclear translocation,STAT3 [3],blocked
same,PDGF-BB-induced CDK2 expression,CDK2,significantly inhibited
same,PDGF-BB-induced STAT3 DNA binding activity (luciferase reporter),STAT3 [4],inhibited
same,PDGF-BB-induced expression of SPP1,SPP1,decreased
same,cell apoptosis induction,VSMCs [5],no signs of cell apoptosis induction
same,PDGF-BB-induced cyclin E1 expression,cyclin E1,significantly inhibited
same,binding to STAT3 with mutated SH2 residues,"His-STAT3; Ile59, Arg609, and Glu612 mutated, compared to full-length",did not bind to STAT3 strongly
same,pull-down of full-length STAT3 by CAB-conjugated beads,His-STAT3; full-length His-STAT3,successfully pulled down
same,pull-down of STAT3 fragments lacking SH2 by CAB-conjugated beads,His-STAT3; ΔSH2,did not pull down
same,CDKN1B expression,CDKN1B,dose-dependently restored
same,cytotoxic effects in VSMCs,VSMCs [6],did not induce cytotoxic effects
same,PDGF-BB-induced CIAPIN1 luciferase expression,rat Ciapin1 promoter,inhibited
same,PDGF-BB-induced expression of KLF4,KLF4,decreased
same,PDGF-BB-induced CIAPIN1 expression,CIAPIN1 [7],significantly inhibited
same,STAT3 dimerization,STAT3 [1],inhibited
same,PDGF-BB-stimulated ERK1/2 phosphorylation,ERK1/2,did not affect
same,PDGF-BB-induced SRC phosphorylation,SRC,did not inhibit
same,PDGF-BB-induced cyclin D1 expression,cyclin D1,significantly inhibited
same,PDGF-BB-induced CDK4 expression,CDK4,significantly inhibited
same,CIAPIN1 expression in the neointima region,rat carotid arteries,remarkably decreased
same,arterial intimal areas,rat carotid arteries; BI + CAB vs BI,lower
same,circumference of the external elastic lamina (EEL),rat carotid arteries; BI + CAB vs BI,no differences
same,media area,rat carotid arteries; BI + CAB vs BI,no differences
same,balloon injury-induced neointima formation,rat carotid arteries; vs BI group,significantly attenuated
same,expression of PCNA in carotid arteries,rat carotid arteries; vs BI group,significantly decreased
same,PDGF-BB-induced STAT3 tyrosine (Tyr) 705 phosphorylation,"STAT3 [8]; 1–5 μmol/L, PDGF-BB 15 min",significantly inhibited
same,STAT3 serine (Ser) 727 phosphorylation,"STAT3 [8]; 1–5 μmol/L, PDGF-BB 15 min",without affecting
same,STAT3 phosphorylation,STAT3 [8],attenuated
same,MMP9 proteolytic activity,MMP9 [9],significantly inhibited
same,CIAPIN1 nuclear accumulation,CIAPIN1 [10],significantly reduced
same,PDGF-BB-stimulated p38 phosphorylation,p38,did not affect
same,G0/G1 phase proportion,PDGF-BB-induced VSMCs [11],increase
same,PDGF-BB-stimulated AKT phosphorylation,AKT,did not affect
same,PDGF-BB-induced PCNA expression,PCNA,significantly inhibited
same,"glutamic pyruvic transaminase (GPT/ALT, soluble) level",[12]; [16],no alterations
same,"glutamic-oxaloacetic transaminase 1 (GOT1/AST, soluble) level",[12]; [16],no alterations
same,"histological morphology of liver, heart, lung, and kidney","[12]; rat, 20 mg/kg orally daily",no significant changes
same,"side effects, such as diarrhea and weight loss","[12]; rat, 20 mg/kg orally daily",did not show any side effects
same,cell death induction (TUNEL staining) in carotid arteries,"[12]; rat, 14 days post-injury, compared with control group",no signs of cell death induction
same,PDGF-BB-induced MMP9 expression,MMP9 [13],significantly inhibited
same,PDGF-BB-induced JAK2 phosphorylation,"JAK2; 5 μmol/L, PDGF-BB 15 min",did not inhibit
same,PDGF-BB-induced JAK2 expression,JAK2,significantly inhibited
same,JAK2 phosphorylation,JAK2,attenuated
"O=[N+]([O-])c1ccc2c(c1)S(=O)(=O)C=C2 [Stattic, reference compound]",PDGF-BB-induced expression of SPP1,SPP1,inhibited
same,CDKN1B expression,CDKN1B,increased
same,PDGF-BB-induced expression of KLF4,KLF4,inhibited
same,PDGF-BB-induced CIAPIN1 expression,CIAPIN1 [7],significantly inhibited
same,STAT3 dimerization,STAT3 [1],inhibitory effect
same,STAT3 phosphorylation,STAT3 [8],significantly inhibited
same,CIAPIN1 nuclear accumulation,CIAPIN1 [10],significantly reduced
same,"Ka, association rate constant",[14],1002 mol⁻¹ L⁻¹ s⁻¹
same,"Kd, dissociation rate constant",[14],0.009083 s⁻¹
same,pKd,"[14]; read-out: KD, equilibrium constant",5.04
same,PDGF-BB-induced JAK2 expression,JAK2,significantly inhibited
same,JAK2 phosphorylation,JAK2,significantly inhibited
"O=C(Oc1ccc2[nH]c3ccccc3c2c1)c1ccc(O)cc1 [compound 2, 9H-Carbazol-3-yl 4-hydroxybenzoate]",PDGF-BB-stimulated VSMC proliferation,PDGF-BB-induced VSMCs [15],significantly inhibited
"N=C(N)Nc1ccc(C(=O)Oc2ccc3[nH]c4ccccc4c3c2)cc1 [compound 3, 9H-Carbazol-3-yl 4-guanidinobenzoate]",PDGF-BB-stimulated VSMC proliferation,PDGF-BB-induced VSMCs [15],significantly inhibited
"CC(=O)Nc1ccc(C(=O)Oc2ccc3[nH]c4ccccc4c3c2)cc1 [compound 4, 9H-Carbazol-3-yl 4-acetamidobenzoate]",PDGF-BB-stimulated VSMC proliferation,PDGF-BB-induced VSMCs [15],significantly inhibited

# From PMC12069901 (Acta Pharmaceutica Sinica. B, 2025)
